Laboratory results from BindingDB's records for doi:10.7270/Q2319T8T (The Scripps Research Institute Molecular Screening Center, 2007).
Where a name gives a salt, the structure may show the parent alone.

target: Steroidogenic factor 1 (Homo sapiens, UniProt Q13285); test: blockers of SF-1 LBD reporter transcription – cell-based, CHO-K1, Gal4-SF-1 LBD, luciferase luminescence, dose response (AID 600); conditions: not given
Sequence (Q13285 whole entry, the tested form may be a part): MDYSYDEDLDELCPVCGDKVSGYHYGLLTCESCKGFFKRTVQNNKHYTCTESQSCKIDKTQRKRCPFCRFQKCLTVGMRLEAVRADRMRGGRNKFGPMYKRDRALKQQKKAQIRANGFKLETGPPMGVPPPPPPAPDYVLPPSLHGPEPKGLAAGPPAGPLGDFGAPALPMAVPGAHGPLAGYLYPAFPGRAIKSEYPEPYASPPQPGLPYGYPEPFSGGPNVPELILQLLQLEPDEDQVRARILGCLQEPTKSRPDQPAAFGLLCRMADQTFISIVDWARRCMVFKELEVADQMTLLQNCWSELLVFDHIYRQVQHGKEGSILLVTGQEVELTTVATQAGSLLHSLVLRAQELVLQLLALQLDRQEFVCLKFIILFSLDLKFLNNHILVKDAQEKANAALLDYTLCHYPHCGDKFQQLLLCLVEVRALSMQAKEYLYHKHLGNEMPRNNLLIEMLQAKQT

| SMILES | IC50 [µM] |
| --- | --- |
| Cn1nc(C(C)(C)C)cc1C(=O)NCc1ccc(N2CCCC2=O)cc1 [5-tert-Butyl-2-methyl-2H-pyrazole-3-carboxylic acid 4-(2-oxo-pyrrolidin-1-yl)-benzylamide] | 9.05 |
| C[C@@]1(CO)[C@H](O)CC[C@@]2(C)[C@H]1CC[C@H]1C[C@@H]3C[C@@]12CC[C@]3(O)CO [6,13-di(hydroxymethyl)-2,6-dimethyl-(1S,2S,5R,6R,7R,10S,12R,13R)-tetracyclo[10.3.1.01,10.02,7]hexadecane-5,13-diol (Aphidicolin)] | 0.55 |
| Cc1cc(C)n(-c2nc(NC(C)C)nc(NC(C)C)n2)n1 [6-(3,5-Dimethyl-pyrazol-1-yl)-N,N'-diisopropyl-[1,3,5]triazine-2,4-diamine] | 8.33 |
| C[S+]([O-])c1nc(-c2ccc(Br)cc2)cc(-c2ccccc2)c1C#N (configuration not stated) [6-(4-bromophenyl)-2-(methylsulfinyl)-4-phenylnicotinonitrile] | 5.24 |
| CCOc1ccc(C2=Nn3c(nnc3-c3ccccc3OC)SC2)cc1 [6-(4-ethoxyphenyl)-3-(2-methoxyphenyl)-7H-[1,2,4]triazolo[3,4-b][1,3,4]thiadiazine] | > 0.407 |
| CCc1ccc(-c2cn3nc(C)c(C)nc3n2)cc1 [6-(4-ethylphenyl)-2,3-dimethyl-imidazo[1,2-b][1,2,4]triazine] | 3.21 |
| Cc1ccc(Nc2cc(C)nn2-c2nc(C)cc(O)n2)cc1 [6-methyl-2-[3-methyl-5-(4-methylanilino)pyrazol-1-yl]-1H-pyrimidin-4-one] | 4.32 |
| COc1ccc(Cl)c(Cn2c(NCc3ccco3)nc3c2c(=O)n(C)c(=O)n3C)c1 [7-(2-chloro-5-methoxy-benzyl)-8-(2-furfurylamino)-1,3-dimethyl-xanthine] | > 99 |
| CCNc1nc2c(c(=O)n(C)c(=O)n2C)n1Cc1ccc(Cl)cc1 [7-(4-chlorobenzyl)-8-(ethylamino)-1,3-dimethyl-xanthine] | > 3.67 |
| COc1cccc(N2CCN(c3ncnc4c3[nH]c3ccc(F)cc34)CC2C)c1 (configuration not stated) [8-fluoranyl-4-[4-(3-methoxyphenyl)-3-methyl-piperazin-1-yl]-5H-pyrimido[5,4-b]indole] | 2.07 |
| COc1ccc2[nH]c3nc(SC(C)C)nnc3c2c1 [8-methoxy-3-propan-2-ylsulfanyl-5H-[1,2,4]triazino[5,6-b]indole] | 9.03 |
| COc1ccccc1-c1nnc(Nc2nc3c(OC)cccc3s2)o1 [(4-methoxy-1,3-benzothiazol-2-yl)-[5-(2-methoxyphenyl)-1,3,4-oxadiazol-2-yl]amine] | 6.52 |
| CN=c1scc(C)n1N=Cc1ccc(O)cc1O [(4E)-4-[[(4-methyl-2-methylimino-1,3-thiazol-3-yl)amino]methylidene]-3-oxidanyl-cyclohexa-2,5-dien-1-one] | 15.2 |
| CCN1C(=O)/C(=C2/Sc3ccc(OC)cc3N2C)S/C1=N\c1cccc(O)c1 [(5Z)-3-ethyl-2-(3-hydroxyphenyl)imino-5-(5-methoxy-3-methyl-1,3-benzothiazol-2-ylidene)-1,3-thiazolidin-4-one] | 7.66 |
| CCc1c(C)nc2ncnn2c1NCCc1ccc(OC)cc1 [(6-Ethyl-5-methyl-[1,2,4]triazolo[1,5-a]pyrimidin-7-yl)-[2-(4-methoxy-phenyl)-ethyl]-amine] | > 11 |
| CCc1ccc2oc(-c3cc(N)ccc3O)nc2c1 [(6E)-4-amino-6-(5-ethyl-3H-1,3-benzoxazol-2-ylidene)-1-cyclohexa-2,4-dienone] | > 3.67 |
| CC(C)c1ccc2oc(-c3cc(N)ccc3O)nc2c1 [(6E)-4-amino-6-(5-isopropyl-3H-1,3-benzoxazol-2-ylidene)cyclohexa-2,4-dien-1-one] | 10.6 |
| COc1cccc2c1C(=O)c1c(O)c3c(c(O)c1C2=O)C[C@@](O)(C(C)=O)C[C@@H]3O[C@H]1C[C@H](N)[C@H](O)[C@H](C)O1 [(7S,9S)-9-acetyl-7-[(2R,4S,5S,6S)-4-amino-5-hydroxy-6-methyloxan-2-yl]oxy-6,9,11-trihydroxy-4-methoxy-8,10-dihydro-7H-tetracene-5,12-dione;hydrochloride] | 0.54 |
| C[C@H]1CCCC=CC2C[C@H](O)CC2[C@H](O)C=CC(=O)O1 (stereo partly drawn) [(7S,12R,15S)-12,15-dihydroxy-7-methyl-8-oxabicyclo[11.3.0]hexadeca-2,10-dien-9-one] | 5.61 |

More lines, now with the values ahead:

| IC50 [µM] | SMILES |
| --- | --- |
| 7.6 | Oc1c(CN2CCN(c3ccccn3)CC2)cc(Cl)c2cccnc12 [5-chloranyl-7-[(4-pyridin-2-ylpiperazin-1-yl)methyl]quinolin-8-ol] |
| > 3.67 | O=C(Nc1nc(-c2ccccn2)cs1)c1ccc(Cl)s1 [5-chloranyl-N-(4-pyridin-2-yl-1,3-thiazol-2-yl)thiophene-2-carboxamide] |
| 5.75 | Cc1ccc(S(=O)(=O)Nc2cccc3ncccc23)s1 [5-methyl-N-quinolin-5-ylthiophene-2-sulfonamide] |
| 5.46 | O=S1(=O)Nc2c(ccc3cccnc23)-c2ccccc21 [5H-quinolino[8,7-c][1,2]benzothiazine 6,6-dioxide] |
| 5.34 | COC(=O)C1C(=CN2CCCc3ccccc32)NC(=O)NC1c1ccc(F)cc1 (configuration not stated) [6-(3,4-dihydro-2H-quinolin-1-ylmethyl)-4-(4-fluorophenyl)-2-keto-3,4-dihydro-1H-pyrimidine-5-carboxylic acid methyl ester] |
| 1.96 | Cc1ccc2nc(-c3ccccc3)cn2c1 [6-methyl-2-phenyl-imidazo[1,2-a]pyridine;hydrobromide] |
| 5.38 | Cc1nnc(SC(=O)N2c3ccccc3Sc3ccccc32)s1 [10-phenothiazinecarbothioic acid S-(5-methyl-1,3,4-thiadiazol-2-yl) ester] |
| 5.75 | O=C(OC1CCOC1=O)c1ccc(-c2nc3ccccc3s2)s1 (configuration not stated) [(2-oxidanylideneoxolan-3-yl) 5-(1,3-benzothiazol-2-yl)thiophene-2-carboxylate] |
| 4.48 | COc1cccc2sc(Nc3nc(-c4ccccn4)cs3)nc12 [(4-methoxy-1,3-benzothiazol-2-yl)-[4-(2-pyridyl)thiazol-2-yl]amine] |
| 10.4 | COc1ccccc1-c1nnc2n1N=C(c1ccc(O)c(O)c1)CS2 [(4E)-4-[3-(2-methoxyphenyl)-5H-[1,2,4]triazolo[3,4-b][1,3,4]thiadiazin-6-ylidene]-2-oxidanyl-cyclohexa-2,5-dien-1-one] |
| 5.66 | CCc1ccc2oc(-c3cc(N=Cc4cccc(OC)c4O)ccc3O)nc2c1 [(6E)-6-[[[(3E)-3-(5-ethyl-3H-1,3-benzoxazol-2-ylidene)-4-keto-cyclohexa-1,5-dien-1-yl]amino]methylene]-2-methoxy-cyclohexa-2,4-dien-1-one] |
| 14.7 | N#CC1C(=N)C(C#N)(C#N)[C@H](c2ccncc2)[C@H]2CN(C(=O)OCc3ccccc3)CC=C12 (stereo partly drawn) [(8S,8aR)-6-amino-5,7,7-tricyano-8-(4-pyridyl)-1,3,8,8a-tetrahydroisoquinoline-2-carboxylic acid benzyl ester] |
| 6.19 | CCn1c2ccccc2c2cc(Nc3cc(C)nc4ncnn34)ccc21 [(9-ethylcarbazol-3-yl)-(5-methyl-[1,2,4]triazolo[1,5-a]pyrimidin-7-yl)amine] |
| > 11 | Cc1ccc(C(=O)CC=Nc2ccccn2)cc1 [(E)-1-(4-methylphenyl)-3-(2-pyridinylamino)-2-propen-1-one] |
| > 11 | CN(C)c1ccc(N=CCC(=O)c2ccccc2)cc1 [(E)-3-[4-(dimethylamino)anilino]-1-phenyl-2-propen-1-one] |
| 6.09 | O=C(CC=Nc1ccccn1)c1ccc(Cl)cc1 [(Z)-1-(4-chlorophenyl)-3-(2-pyridinylamino)-2-propen-1-one] |
| 13.6 | O=C(CC=Nc1ccc2c(c1)OCO2)c1ccccn1 [(Z)-3-(1,3-benzodioxol-5-ylamino)-1-(2-pyridinyl)-2-propen-1-one] |
| 11.3 | CCOC(=O)c1[n-]c2ccccc2c1[N+]#N [(Z)-(3-diazonio-2-indolylidene)-ethoxymethanolate] |

same assay, conditions: inactive by the depositor's call

| SMILES | IC50 [µM] |
| --- | --- |
| c1csc(CCNc2ncnc3sc4c(c23)CCC4)c1 [7,8-dihydro-6H-cyclopenta[4,5]thieno[1,2-c]pyrimidin-1-yl-[2-(2-thienyl)ethyl]amine] | 11.1 |
| Cn1c(=O)c2c(nc(NCc3ccco3)n2C/C=C/c2ccccc2)n(C)c1=O [7-[(E)-cinnamyl]-8-(2-furfurylamino)-1,3-dimethyl-xanthine] | 16.9 |
| COc1cccc(Cn2c(NCc3ccco3)nc3c2c(=O)n(C)c(=O)n3C)c1 [8-(2-furanylmethylamino)-7-[(3-methoxyphenyl)methyl]-1,3-dimethylpurine-2,6-dione] | 25.4 |
| CCCCOc1ccc(OC(=O)c2cccnc2)cc1 [(4-butoxyphenyl) pyridine-3-carboxylate] | 15.4 |
| COc1ccc(CCNc2c(C)c(C)nc3ncnn23)cc1 [(5,6-Dimethyl-[1,2,4]triazolo[1,5-a]pyrimidin-7-yl)-[2-(4-methoxy-phenyl)-ethyl]-amine] | 15.1 |
| O=S(=O)(C/C(=C/CO)S(=O)(=O)c1ccccc1)c1ccccc1 [(Z)-3,4-bis(benzenesulfonyl)but-2-en-1-ol] | 18 |

Further lines, results first:

| IC50 [µM] | SMILES |
| --- | --- |
| 12.6 | CN1Cc2cc(C(=O)c3cc(Cl)cc(CSc4ncccn4)c3O)cnc2NC1=O [6-[5-chloranyl-2-oxidanyl-3-(pyrimidin-2-ylsulfanylmethyl)phenyl]carbonyl-3-methyl-1,4-dihydropyrido[2,3-d]pyrimidin-2-one] |
| 13.4 | CC(C)Cn1c(N)c(C(=O)CSc2ccc3c(c2)OCCO3)c(=O)n(C)c1=O [6-amino-5-[2-(2,3-dihydro-1,4-benzodioxin-6-ylsulfanyl)acetyl]-3-methyl-1-(2-methylpropyl)pyrimidine-2,4-dione] |
| 15 | Cn1c(-c2ccccc2)cc2c3no[n+]([O-])c3ccc21 [6-methyl-3-oxidanidyl-7-phenyl-pyrrolo[2,3-g][2,1,3]benzoxadiazol-3-ium] |
| 12.3 | O=C1C(=CNc2ccc3c(c2)OCO3)CCc2ccccc21 [(2E)-2-[(1,3-benzodioxol-5-ylamino)methylene]tetralin-1-one] |
